In US20260256772A1, “BENZOTHIAZOLE COMPOUND AND USE THEREOF” (NANJING REJU THERAPEUTICS, INC., priority 2022, published 2026):

Legend:
[1] = tested on: wet-age-related macular degeneration; test: CNV animal model of wet-age-related macular degeneration; format: in vivo, mice; details: intravitreal (IVT), FIG. 5
Description: In this test example, the efficacy of the compounds of the present disclosure was tested on wet-age-related macular degeneration in a CNV animal model.
Male mice were administered 0.5% probacaine hydrochloride (Alcon) for local anesthesia, and 1% tropicamide to dilate the pupils of the mice. Laser cauterization was performed using a laser photocoagulator (Novus Varia, LUMENIS) with a slit lamp delivery system. And artificially torn adherent glass coverslips were used as contact lenses. Bleeding spots caused by lasers were not included in the statistics. In each experimental group, six mice were analyzed with four impacts per eye to overcome inherent variability.

[2] = tested on: idiopathic pulmonary fibrosis; test: Idiopathic pulmonary fibrosis animal model (bleomycin); format: in vivo, SD rats; details: intraperitoneal (IP) 5 mg/kg, 3 consecutive weeks, FIG. 6; for pathology scores: H&E and Masson staining; for WBC: alveolar lavage fluid; for HYP: lung tissue
Description: In this test example, the efficacy of the compounds of the present disclosure was tested on idiopathic pulmonary fibrosis in an idiopathic pulmonary fibrosis animal model. Briefly, anesthetized 6-week-old SD rats were fixed on a foam board with medical tape. Firstly, the skin on the surface of the trachea was cut with surgical scissors to fully expose the trachea, and a 100-microlitre micro-syringe containing a certain volume of bleomycin (BLM 5 mg/kg) solution drawn based on the body weight of the rat was inserted into the trachea through the oral cavity to administer by slow bolus injection. After administration of the BLM solution, the foam plate was immediately rotated and shaken to distribute the BLM solution as evenly as possible in the lung tissue. Then the skin on the surface of the trachea was sutured with surgical sutures and about 0.5 to 1.0 mL of penicillin solution was dripped onto the epidermis to prevent infection of the surgical wound. After the 7th day of modelling, the compound solution of the present disclosure was administered via intraperitoneal (IP) injection (5 mg/kg) according to the weight of the rat for 3 consecutive weeks. Rats were euthanized by carbon dioxide on Day 28, the lung tissues were removed, the left alveolar lavage fluid was collected for white blood cell (WBC) counting, the right lung tissue portion was used for hydroxyproline (HYP) assay, and the remaining lung tissues were stained for pathology by H&E staining and Masson staining.

platelets = test: Platelet toxicity test in mice (platelet count); format: in vivo; details: mice, 0.5 mg/kg single intraperitoneal injection, blood at 6 hours, FIG. 1
Description: In this test example, C57 mice were chosen to detect the effect of the target compounds on platelets.
7 to 8 weeks old […] mice were randomly divided into vehicle group and compound group. The test compound (0.5 mg/kg) or blank vehicle was administrated via single intraperitoneal injection. Blood was collected from the retroorbital venous plexus of the mice at 6 hours, and placed in a blood routine tube containing anticoagulant EDTA-K2. After shaking gently, the blood physiological indicators were measured using a hematology analyzer, with the platelet count as the target parameter for this platelet toxicity test.

[3] = tested on: oxygen-induced retinopathy (OIR); test: Mouse model of oxygen-induced retinopathy (OIR); format: in vivo; details: intravitreal (IVT), 1 μL of 200 μM at P12, read at P17, FIG. 3
Description: The efficacy of the prodrugs RX001-RX006 as well as RX301 were investigated in a mouse model of oxygen-induced retinopathy (OIR) which to some extent indicates an in vivo model of retinopathy of prematurity (ROP), diabetic retinopathy, and wet age-related macular degeneration.
From postnatal Day 7 (P7) to Day 12 (P12), C57Bl/6 mouse pups and their CD 1 foster mothers were exposed to hyperoxia (75% 02). At P12, the animals were injected intravitreally with 1 μL of the test composition formulated in 1% DMSO, 10% Tween 80, and 20% PEG-400 (200 μM of the compound) and returned to room air until day 17 (P17). On P17, the eyeballs were enucleated, and the retinas were dissected for vascular staining. To determine the area of avascularity or angiogenesis, the retinas were flattened and stained with isolectin B4 (IB4).

Compound | fluorescence intensity indicators [1] | pathology scores [2] | WBC [2] | HYP [2] | platelet toxicity (platelet count) (platelets) | angiogenesis [3] | avascular zone [3]
CCN1CCN(C(=O)c2nc(N3CCc4cccc(C(=O)Nc5nc6ccccc6s5)c4C3)ccc2-c2cnn(CC34CC5CC(CC(C5)C3)C4)c2C)CC1 [RX001] | statistically significant improvements | statistically significant improvements | statistically significant improvements | statistically significant improvements |  |  | 
Cc1c(-c2ccc(N3CCc4cccc(C(=O)Nc5nc6ccccc6s5)c4C3)nc2C(=O)N2CCC(CCOP(=O)(O)O)CC2)cnn1CC12CC3CC(CC(C3)C1)C2 [RX301] | statistically significant improvements | statistically significant improvements | statistically significant improvements | statistically significant improvements | significantly improved | statistically significant improvements | statistically significant improvements
